# Laboratory results taken from ChEMBL document CHEMBL5360673, “2B Determined: The Future of the Serotonin Receptor 2B in Drug Discovery” (J Med Chem, 2023).
# Assays:
# [1] = molecular target: T1, 5-hydroxytryptamine receptor 2B (Homo sapiens, UniProt P41595); test: Displacement of [3H]-LSD from human 5-HT2B receptor assessed as inhibition constant
# [2] = Half life in ip dosed C57BL/6 mouse; format: ADME, organism-based; conditions: in vivo
# Cytochrome P450 2C9 = Cytochrome P450 2C9 (Homo sapiens, UniProt P11712); test: Inhibition of CYP2C9 (unknown origin); format: ADME
# [3] = Cmax in ip dosed C57BL/6 mouse; format: ADME, organism-based; design: route ip; conditions: in vivo
# [4] = Ratio of drug concentration in brain to plasma of C57BL/6 mouse administered intraperitoneally and measured for 0.25 to 24 hrs; format: ADME; conditions: time 0.25-24 hrs, route ip, read-out: BPR
# Cytochrome P450 1A2 = molecular target: T2, Cytochrome P450 1A2 (Homo sapiens, UniProt P05177); test: Inhibition of CYP1A2 (unknown origin); format: ADME
# T2 sequence (P05177 whole entry): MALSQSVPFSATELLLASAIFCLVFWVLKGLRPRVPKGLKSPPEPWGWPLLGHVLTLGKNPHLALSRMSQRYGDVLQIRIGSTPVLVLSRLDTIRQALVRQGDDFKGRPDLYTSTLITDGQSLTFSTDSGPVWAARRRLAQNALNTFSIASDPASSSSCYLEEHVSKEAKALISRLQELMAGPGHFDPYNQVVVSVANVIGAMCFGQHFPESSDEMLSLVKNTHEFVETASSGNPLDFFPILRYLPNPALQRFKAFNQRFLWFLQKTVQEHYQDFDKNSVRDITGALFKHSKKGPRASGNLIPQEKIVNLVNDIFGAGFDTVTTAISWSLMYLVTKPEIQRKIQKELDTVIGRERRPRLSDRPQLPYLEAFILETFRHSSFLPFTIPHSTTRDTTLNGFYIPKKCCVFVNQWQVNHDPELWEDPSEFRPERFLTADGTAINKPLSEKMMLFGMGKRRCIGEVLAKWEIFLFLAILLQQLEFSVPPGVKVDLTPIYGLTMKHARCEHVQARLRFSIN
# Cytochrome P450 3A4 = Cytochrome P450 3A4 (Homo sapiens, UniProt P08684); test: Inhibition of CYP3A4 (unknown origin); format: ADME
# Cytochrome P450 2D6 = Cytochrome P450 2D6 (Homo sapiens, UniProt P10635); test: Inhibition of CYP2D6 (unknown origin); format: ADME
# [5] = molecular target: T1, 5-hydroxytryptamine receptor 2B; test: Binding affinity to 5-HT2B receptor (unknown origin)
# [6] = Selectivity ratio, […] for 5-HT2B (unknown origin)
# [7] = molecular target: T1, 5-hydroxytryptamine receptor 2B; test: Agonist activity at 5-HT2B receptor (unknown origin) assessed as stimulation of intracellular calcium level by calcium mobilization assay; format: functional, cell-based
# [8] = molecular target: T1, 5-hydroxytryptamine receptor 2B; test: Agonist activity at 5-HT2B receptor (unknown origin) assessed as stimulation of phospho-inositide hydrolysis by IP hydrolysis assay; format: functional
# [9] = molecular target: T1, 5-hydroxytryptamine receptor 2B; test: Agonist activity at 5-HT2B receptor (unknown origin) assessed as stimulation of […] by calcium mobilization assay; format: functional
# T1 sequence (P41595 whole entry): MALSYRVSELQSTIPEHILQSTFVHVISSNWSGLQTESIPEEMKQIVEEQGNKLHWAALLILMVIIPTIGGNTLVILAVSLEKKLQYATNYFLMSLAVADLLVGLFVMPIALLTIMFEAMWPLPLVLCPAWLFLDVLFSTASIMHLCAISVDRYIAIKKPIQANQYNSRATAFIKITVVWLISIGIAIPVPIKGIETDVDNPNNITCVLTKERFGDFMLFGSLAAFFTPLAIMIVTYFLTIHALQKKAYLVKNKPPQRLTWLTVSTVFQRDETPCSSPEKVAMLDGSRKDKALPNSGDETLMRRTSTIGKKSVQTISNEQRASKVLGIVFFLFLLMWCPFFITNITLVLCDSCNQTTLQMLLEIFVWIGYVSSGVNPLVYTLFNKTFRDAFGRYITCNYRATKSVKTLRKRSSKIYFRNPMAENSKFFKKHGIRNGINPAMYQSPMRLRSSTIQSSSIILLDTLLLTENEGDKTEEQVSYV
# Cytochrome P450 2C9, sequence (P11712 whole entry): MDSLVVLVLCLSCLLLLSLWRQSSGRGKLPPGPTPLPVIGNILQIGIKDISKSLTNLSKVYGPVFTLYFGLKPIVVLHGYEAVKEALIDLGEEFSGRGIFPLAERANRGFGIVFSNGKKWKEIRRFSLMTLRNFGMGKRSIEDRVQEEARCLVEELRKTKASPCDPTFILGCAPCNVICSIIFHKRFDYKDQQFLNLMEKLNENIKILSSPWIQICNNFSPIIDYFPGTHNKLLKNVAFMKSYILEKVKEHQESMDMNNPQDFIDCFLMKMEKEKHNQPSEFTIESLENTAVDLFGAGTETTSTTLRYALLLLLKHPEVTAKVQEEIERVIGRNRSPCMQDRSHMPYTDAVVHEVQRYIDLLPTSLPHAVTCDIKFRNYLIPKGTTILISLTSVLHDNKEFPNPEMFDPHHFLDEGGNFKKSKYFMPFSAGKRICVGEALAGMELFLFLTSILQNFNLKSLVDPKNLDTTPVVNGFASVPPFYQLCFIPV
# Cytochrome P450 3A4, sequence (P08684 whole entry): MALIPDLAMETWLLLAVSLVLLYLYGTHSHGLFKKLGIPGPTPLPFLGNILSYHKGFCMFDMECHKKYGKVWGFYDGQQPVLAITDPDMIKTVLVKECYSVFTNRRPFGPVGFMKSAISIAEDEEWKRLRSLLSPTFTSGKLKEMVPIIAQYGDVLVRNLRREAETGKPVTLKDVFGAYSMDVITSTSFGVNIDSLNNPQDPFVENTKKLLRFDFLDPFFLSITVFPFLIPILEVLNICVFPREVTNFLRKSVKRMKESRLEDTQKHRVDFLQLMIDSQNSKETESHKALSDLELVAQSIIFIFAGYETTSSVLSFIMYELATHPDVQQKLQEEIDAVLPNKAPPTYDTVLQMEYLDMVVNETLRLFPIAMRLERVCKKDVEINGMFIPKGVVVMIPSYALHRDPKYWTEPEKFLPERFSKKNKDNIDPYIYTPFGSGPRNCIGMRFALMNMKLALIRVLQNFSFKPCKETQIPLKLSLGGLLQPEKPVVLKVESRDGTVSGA
# Cytochrome P450 2D6, sequence (P10635 whole entry): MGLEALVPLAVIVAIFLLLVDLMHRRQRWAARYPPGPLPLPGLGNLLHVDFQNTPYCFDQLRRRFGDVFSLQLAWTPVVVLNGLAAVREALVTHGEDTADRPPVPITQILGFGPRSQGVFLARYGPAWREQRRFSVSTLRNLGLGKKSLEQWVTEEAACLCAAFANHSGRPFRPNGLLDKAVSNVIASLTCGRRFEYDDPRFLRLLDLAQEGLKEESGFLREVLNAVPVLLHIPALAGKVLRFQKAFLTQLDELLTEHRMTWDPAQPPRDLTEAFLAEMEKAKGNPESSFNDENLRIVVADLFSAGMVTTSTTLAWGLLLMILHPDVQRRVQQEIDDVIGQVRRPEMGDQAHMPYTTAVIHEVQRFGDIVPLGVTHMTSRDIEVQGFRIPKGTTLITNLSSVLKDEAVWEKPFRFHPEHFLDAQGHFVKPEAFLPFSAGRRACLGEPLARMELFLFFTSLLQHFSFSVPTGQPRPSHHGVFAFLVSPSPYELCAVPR
compound,measurement,setting,value
O=C1[C@@H]2[C@@H]3C[C@@H](C[C@H]3O)[C@@H]2C(=O)N1C[C@@H]1CCCC[C@H]1CN1CCN(c2nsc3ccccc23)CC1,Ki,[1],24 nM
Cn1ccc2cc(-n3c(=O)[nH]c4sc5c(c4c3=O)CCCC5)ccc21,half-life,[2],42 min
same,IC50,Cytochrome P450 2C9,> 30000 nM
same,Cmax,[3],43000 ng/mL
same,Kp,[4],0.01
same,IC50,Cytochrome P450 1A2,> 30000 nM
same,IC50,Cytochrome P450 3A4,> 30000 nM
same,IC50,Cytochrome P450 2D6,> 30000 nM
Cc1cc(NC(=O)Nc2ccc3c(ccn3C)c2)sn1,Ki,[5],11.2 nM
same,Selectivity ratio,[6],> 135
C[C@H](N)Cc1cccc(C(F)(F)F)c1 [NORDEXFENFLURAMINE],EC50,[7],23 nM
same,EC50,[8],23 nM
same,EC50,[9],23 nM
